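Method: 48-hour compound exposure of cells in 96-well plates, five concentrations, linear interpolation of endpoints. GI50 marks 50% less growth.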 Calls of active or inactive are those of the source. Cut-off read from the data, not from the text of the source: active = GI50 up to about 1.1 µM and inactive = higher.
How the values were obtained:
Test in all cases: NCI-60 cell line screen, 48 h
[1] = system: CCRF-CEM
[2] = system: COLO 205
[3] = system: HCC 2998
[4] = system: HL-60
[5] = system: K562
[6] = system: KM12
[7] = system: M14
[8] = system: Malme-3M
[9] = system: NCI-H460
[10] = system: NCI-H522
[11] = system: OVCAR-5
[12] = system: SK-MEL-2
[13] = system: SR
[14] = system: TK-10
[15] = system: UACC-62
[16] = system: MCF7
[17] = system: MDA-MB-231
[18] = system: MDA-N
[19] = system: PC-3
[20] = system: MDA-MB-435

Measured: GI50

CC1(C)OC(=O)C(=Cc2ccc(O)cc2)C(=O)O1
inactive: [1] > 100 µM | [2] > 100 µM | [3] > 100 µM | [4] > 100 µM | [5] > 100 µM | [6] > 100 µM | [7] > 100 µM | [8] > 100 µM | [9] > 100 µM | [10] > 100 µM | [11] > 100 µM | [12] > 100 µM | [13] > 100 µM | [14] > 100 µM | [15] > 100 µM

O=C(Nc1ccc(Br)c2ccccc12)c1ccc2ccccc2c1O
inactive: [1] 2.86 µM | [2] 2.11 µM | [3] 5.64 µM | [4] 3.64 µM | [5] 2.55 µM | [6] 2.9 µM | [7] 4.63 µM | [16] 2.73 µM | [17] 3.27 µM | [18] 1.7 µM | [8] 1.36 µM | [9] 2.23 µM | [10] 1.71 µM | [11] 2.75 µM | [19] 1.35 µM | [13] 6.44 µM | [14] 3.19 µM | [15] 1.82 µM
active: [12] 0.597 µM

C1COCCSC2=C(SCCO1)SC(=C1SC3=C(SCCOCCOCCS3)S1)S2
inactive: [1] > 100 µM | [2] > 100 µM | [3] > 100 µM | [4] > 100 µM | [5] > 100 µM | [6] > 100 µM | [7] > 100 µM | [8] 98.9 µM | [9] 96.4 µM | [10] 36.2 µM | [11] > 100 µM | [12] 84.3 µM | [13] 66.4 µM | [14] > 100 µM | [15] > 100 µM

CCOC(=O)/C(C#N)=C/c1ccnc2ccccc12
inactive: [2] > 100 µM | [3] > 100 µM | [6] 32.5 µM | [7] 56.9 µM | [17] 83.9 µM | [20] 37.2 µM | [18] > 100 µM | [8] 37.1 µM | [9] > 100 µM | [10] > 100 µM | [11] > 100 µM | [19] 36.9 µM | [12] > 100 µM | [13] 2.28 µM | [14] > 100 µM | [15] > 100 µM

CC(=O)N(C(C)=O)C1=C2c3ccccc3N(S(=O)(=O)c3ccccc3)C2n2c(=O)n(-c3ccccc3)c(=O)n2C1 (stereo not given)
inactive: [1] 35 µM | [2] 30.7 µM | [3] 22.7 µM | [4] 23.3 µM | [5] 40.1 µM | [6] 34.7 µM | [7] 27.3 µM | [8] 20.9 µM | [9] 15.3 µM | [10] 17.1 µM | [11] 30.6 µM | [12] 22.9 µM | [13] 5.78 µM | [14] 36.8 µM | [15] 18.1 µM

CCOC(=O)CC(NC(=O)c1ccc(/N=N/N(C)C)cc1)C(=O)OCC (stereo not given)
inactive: [1] > 100 µM | [2] > 100 µM | [3] > 100 µM | [4] > 100 µM | [5] > 100 µM | [6] > 100 µM | [7] > 100 µM | [8] > 100 µM | [9] > 100 µM | [10] > 100 µM | [11] > 100 µM | [12] > 100 µM | [13] > 100 µM | [14] > 100 µM | [15] 63.4 µM

CCN(CC)CCN(C(=O)C(C)(C)C)c1ccccc1N
inactive: [1] > 100 µM | [4] > 100 µM | [5] > 100 µM | [6] > 100 µM | [7] > 100 µM | [16] > 100 µM | [18] > 100 µM | [8] > 100 µM | [9] > 100 µM | [10] > 100 µM | [11] > 100 µM | [19] > 100 µM | [13] > 100 µM | [14] > 100 µM | [15] > 100 µM

Nc1ccc(/C=C/c2ccnc3ccccc23)cc1
inactive: [1] 12.1 µM | [2] 22.9 µM | [3] 28.4 µM | [4] 3.24 µM | [5] 12.7 µM | [6] 16.2 µM | [7] 20.2 µM | [8] 30.3 µM | [9] 16.1 µM | [10] 13.2 µM | [11] 19.6 µM | [12] 17.7 µM | [13] 2.84 µM | [14] 17.4 µM | [15] 23.4 µM

N#Cc1c2c(c(Nc3ccc(Cl)cc3)n3c1nc1ccccc13)CCCC2
inactive: [1] 34.6 µM | [2] 37.9 µM | [3] 32.9 µM | [4] 7.03 µM | [5] 4.46 µM | [6] 20.3 µM | [7] > 83.2 µM | [16] 7.59 µM | [17] > 86.9 µM | [20] > 100 µM | [8] > 67.6 µM | [9] 14.8 µM | [10] 17.5 µM | [11] > 100 µM | [19] 7.06 µM | [12] > 63.8 µM | [13] 17 µM | [14] 53.1 µM | [15] > 100 µM

O=C(Nc1ccc(Cl)cc1)NS(=O)(=O)c1c(-c2ccccc2)oc2ccccc2c1=O
inactive: [1] 33.9 µM | [2] 56.4 µM | [3] 54.2 µM | [4] 61.7 µM | [5] 48 µM | [6] 36.2 µM | [20] 75 µM | [18] 44.7 µM | [8] > 100 µM | [9] 47.4 µM | [10] 1.97 µM | [11] > 100 µM | [19] 56.8 µM | [12] 45.2 µM | [13] 24.2 µM | [14] 23 µM | [15] 1.97 µM

O=C1CSC(c2cccc([N+](=O)[O-])c2)N1c1ccc(-c2ccc(-n3c(-c4ccccc4)nc4ccccc4c3=O)cc2)cc1 (stereo not given)
inactive: [1] 23 µM | [2] 21.1 µM | [3] > 100 µM | [4] 19.5 µM | [5] 24.7 µM | [6] 21.8 µM | [7] 36.2 µM | [16] 17.3 µM | [17] 29.9 µM | [20] 27 µM | [8] 29.8 µM | [9] 25.5 µM | [10] 25.6 µM | [11] > 100 µM | [19] 21.9 µM | [12] 29.2 µM | [13] 19.7 µM | [14] > 100 µM | [15] 28.8 µM

O=C(/C=C/c1ccc(O)cc1)c1ccc2c(c1)OCO2
inactive: [1] 1.21 µM | [2] 14.7 µM | [3] 20.8 µM | [4] 12.1 µM | [5] 20.6 µM | [6] 17 µM | [7] 18.5 µM | [17] 17.5 µM | [20] 22.8 µM | [18] 24 µM | [8] 31.8 µM | [9] 26.2 µM | [10] 12.8 µM | [11] 27.4 µM | [19] 24.6 µM | [12] 27 µM | [13] 10.2 µM | [15] 18.7 µM

CCOC(=O)C1(C(=O)OCC)CN(CC)CN(c2ccccc2)C1
inactive: [1] 16.2 µM | [2] 18.2 µM | [3] 15.4 µM | [4] 22.2 µM | [5] 39.4 µM | [6] > 100 µM | [7] 19.1 µM | [16] 18.5 µM | [20] 19.1 µM | [18] 35.6 µM | [8] 38.3 µM | [9] 35.4 µM | [10] 29.3 µM | [11] 19.2 µM | [13] 21 µM | [14] 19 µM | [15] 26.5 µM

O=c1[nH]c(=O)n(C2CC(O)C(CO)O2)cc1OC/C=C/Cc1ccccc1 (stereo not given)
inactive: [1] > 100 µM | [2] > 100 µM | [4] > 100 µM | [5] > 100 µM | [6] > 100 µM | [7] > 100 µM | [16] > 100 µM | [17] > 100 µM | [20] > 100 µM | [8] > 100 µM | [9] > 100 µM | [10] > 100 µM | [11] > 100 µM | [19] > 100 µM | [13] > 100 µM | [14] > 100 µM | [15] > 100 µM

COc1cc(C2=NNC(=O)c3ccccc3N2c2nc(-c3cccs3)nc3ccc(Br)cc23)cc(OC)c1OC
inactive: [1] 1.45 µM | [2] 5.24 µM | [6] 4.8 µM | [7] 17.1 µM | [16] 2.33 µM | [17] 17.9 µM | [20] 6.82 µM | [8] 17.3 µM | [9] 2.91 µM | [10] 9.06 µM | [11] 40.1 µM | [19] 10.3 µM | [12] 31.2 µM | [14] 23.2 µM | [15] 12.4 µM

CC12C=C[C@]3(CC[C@@H]4[C@@](C)(CO)CCC[C@]4(C)C3CC1)C2 (stereo not given in full)
inactive: [1] 19.9 µM | [2] 16.4 µM | [3] > 10 µM | [4] 17.9 µM | [5] 17.5 µM | [6] > 44.9 µM | [7] 15.7 µM | [8] 20.5 µM | [9] 21 µM | [10] 11.5 µM | [11] 6.01 µM | [12] 17.3 µM | [13] 16 µM | [14] 20.1 µM | [15] 15.8 µM

O=C(Nn1c(-c2cccs2)nc2ccc(I)cc2c1=O)c1ccccc1
inactive: [2] 30.7 µM | [3] 22 µM | [6] 27.9 µM | [7] 36.3 µM | [20] 20.6 µM | [18] 43.9 µM | [9] 26.8 µM | [10] 22.1 µM | [11] 37.8 µM | [19] 33.9 µM | [13] 23.6 µM | [14] 30.3 µM | [15] 20.6 µM

— ChEMBL document CHEMBL1201862, “PubChem BioAssay data set” (2004)
